The source of these data is publication PMC7696433, “Carbohydrate Hydrolase-Inhibitory Activity of Juice-Based Phenolic Extracts in Correlation to Their Anthocyanin/Copigment Profile” (Molecules, 2020).

For assay [1], the target named is T1, porcine pancreatic α-amylase (Sus scrofa, UniProt P00690).
T1 construct: α-amylase from porcine pancreas; purchased Sigma-Aldrich (Taufkirchen, Germany); host or cells: porcine pancreas
T1 sequence (P00690 16-511): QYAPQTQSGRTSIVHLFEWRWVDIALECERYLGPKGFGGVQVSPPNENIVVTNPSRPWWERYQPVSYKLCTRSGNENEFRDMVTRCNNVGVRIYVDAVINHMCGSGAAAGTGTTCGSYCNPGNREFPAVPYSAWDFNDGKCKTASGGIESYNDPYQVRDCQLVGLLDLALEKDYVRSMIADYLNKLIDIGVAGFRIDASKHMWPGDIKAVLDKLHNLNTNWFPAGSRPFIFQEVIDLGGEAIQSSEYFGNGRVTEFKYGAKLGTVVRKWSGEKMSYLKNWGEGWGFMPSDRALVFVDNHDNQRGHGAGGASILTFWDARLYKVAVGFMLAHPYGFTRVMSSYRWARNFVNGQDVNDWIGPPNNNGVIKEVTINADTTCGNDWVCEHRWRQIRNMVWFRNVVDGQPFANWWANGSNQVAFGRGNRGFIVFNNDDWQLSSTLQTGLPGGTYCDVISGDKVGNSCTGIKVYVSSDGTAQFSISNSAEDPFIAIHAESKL
As to the kind of experiment: In vitro α-amylase inhibition study (CNPG3 substrate, absorbance 405 nm). The conditions noted are these: 2 mM of single substance; mean ± SD, n = 3. It counts as biochemical. On the procedure:
The α-amylase inhibition assay was based on a previously described spectrophotometric method. […] Briefly, 20 μL aliquots of the sample (in five different concentrations), the positive control, or the negative control were each mixed with 70 μL of 40 mM phosphate buffered saline (PBS) at pH 6.9 containing 30 U/mL of porcine pancreatic α-amylase and incubated in a 96-well microplate at 37 °C for 10 min. After pre-incubation, 100 μL of substrate solution (40 mM PBS with 4 mM 2-chloro-4-nitrophenyl-α-D-maltotrioside) was added, and the resulting mixtures were incubated at 37 °C for 8 min. Their absorbance was then measured at λ 405 nm using a microplate reader (Biotek, Bad Friedrichshall, Germany). Each sample was measured in triplicate.

In assay [2] the test system is α-glucosidase from Saccharomyces cerevisiae. As to the kind of experiment: In vitro α-glucosidase inhibition study (pNPG substrate, absorbance 405 nm). It counts as biochemical. Particulars: 2 mM of single substance; mean ± SD, n = 3. On the procedure: The α-glucosidase inhibition assay used 4-nitrophenyl-α-D-glucopyranoside as substrate. 20 μL aliquots of the sample (in five different concentrations) or negative and positive control solutions were each mixed with 70 μL enzyme solution (1 U/mL) in 0.1 M PBS (pH 6.8). After incubation at 25 °C for 10 min, 100 μL of 4 mM pNPG solution in PBS was added and incubated in a 96-well microplate for 5 min at 25 °C. The absorbance was measured at λ 405 nm using a microplate reader (Biotek, Bad Friedrichshall, Germany). Each sample was measured in triplicate.

`O=C1O[C@H]2[C@@H]3OC(=O)c4cc(O)c(O)c(O)c4-c4c(O)c(O)c5oc(=O)c6c(c(O)c(O)c7oc(=O)c4c5c76)-c4c(cc(O)c(O)c4O)C(=O)OC[C@H]3OC(O)[C@@H]2OC(=O)c2cc(O)c(O)c(O)c2-c2c1cc(O)c(O)c2O` (mixture of isomers) [punicalagin]: the “Inhibition (%) of α-amylase” value in assay [1] was 4.8 ± 2.6%. Also, in assay [2], the “Inhibition (%) of α-glucosidase” value was found to be 11.5 ± 1.0%.

Regarding `O=C1OC[C@H]2OC(O)[C@H](O)[C@@H](O)[C@@H]2OC(=O)c2cc(O)c(O)c(O)c2-c2c(O)c(O)c3oc(=O)c4c(c(O)c(O)c5oc(=O)c2c3c54)-c2c1cc(O)c(O)c2O` (mixture of isomers) [punicalin], the “Inhibition (%) of α-amylase” value in assay [1] came out at 3.8 ± 0.2%. Further, the “Inhibition (%) of α-glucosidase” value in assay [2] came out at 8.7 ± 0.6%. Take `O=C(/C=C/c1ccc(O)c(O)c1)O[C@@H]1C[C@](O)(C(=O)O)C[C@@H](O)[C@H]1O` [3-caffeoylquinic acid]: in assay [1], the “Inhibition (%) of α-amylase” value amounted to 13.8 ± 1.4%. Besides, the “Inhibition (%) of α-glucosidase” value in assay [2] amounted to 3.6 ± 2.2%. In the same order, the values of `O=C(/C=C/c1ccc(O)c(O)c1)O[C@H]1[C@H](O)C[C@](O)(C(=O)O)C[C@H]1O` [4-caffeoylquinic acid] are 16.0 ± 3.1% and 4.5 ± 3.3%. Consider `Oc1cc(O)c2cc(O)c(-c3ccc(O)c(O)c3)[o+]c2c1` [Cyanidin], for which, in assay [2], the “Inhibition (%) of α-glucosidase” value is on record as 35.5 ± 2.4%.

`O=C(/C=C/c1ccc(O)c(O)c1)O[C@@H](C(=O)O)[C@@H](O)C(=O)O` [caftaric acid]: in assay [1], the “Inhibition (%) of α-amylase” value is listed as 11.5 ± 2.5%. The “Inhibition (%) of α-glucosidase” value in assay [2] is reported as 4.6 ± 2.2%. The like results for `O=C(/C=C/c1ccc(O)c(O)c1)O[C@@H]1C[C@](O)(C(=O)O)C[C@@H](O)[C@H]1O` [chlorogenic acid] were, in that order, 20.3 ± 2.3% and 1.6 ± 3.1%. With `OC[C@H]1O[C@@H](Oc2cc3c(O[C@@H]4O[C@H](CO)[C@@H](O)[C@H](O)[C@H]4O)cc(O)cc3[o+]c2-c2ccc(O)c(O)c2)[C@H](O)[C@@H](O)[C@@H]1O` [cyanidin 3,5-diglucoside], in assay [2], the “Inhibition (%) of α-glucosidase” value came out at 4.9 ± 5.2%. As to `Oc1cc(O)c2cc(O[C@@H]3OC[C@H](O)[C@H](O)[C@H]3O)c(-c3ccc(O)c(O)c3)[o+]c2c1` [cyanidin 3-arabinoside], the “Inhibition (%) of α-amylase” value in assay [1] stood at 18.7 ± 1.2%.

As to `OC[C@H]1O[C@@H](Oc2cc3c(O)cc(O)cc3[o+]c2-c2ccc(O)c(O)c2)[C@H](O)[C@@H](O)[C@@H]1O` [cyanidin 3-glucoside], the “Inhibition (%) of α-glucosidase” value in assay [2] is given as 7.8 ± 5.5%. For `C[C@@H]1O[C@@H](OC[C@H]2O[C@@H](Oc3cc4c(O)cc(O)cc4[o+]c3-c3ccc(O)c(O)c3)[C@H](O)[C@@H](O)[C@@H]2O)[C@H](O)[C@H](O)[C@H]1O` [cyanidin 3-rutinoside], the “Inhibition (%) of α-amylase” value in assay [1] came out at 7.6 ± 1.8%. Same read-out and setting: then `OC[C@H]1O[C@@H](Oc2cc3c(O)cc(O)cc3[o+]c2-c2cc(O)c(O)c(O)c2)[C@H](O)[C@@H](O)[C@@H]1O` [delphinidin glucoside, Delphinidin 3-glucoside], with 12.7 ± 1.9%. `O=c1oc2c(O)c(O)cc3c(=O)oc4c(O)c(O)cc1c4c23` [ellagic acid]: in assay [1], the “Inhibition (%) of α-amylase” value turned out to be 11.0 ± 0.8%. In addition, the “Inhibition (%) of α-glucosidase” value in assay [2] came out at 6.0 ± 0.8%. As to `O=c1c(O[C@@H]2O[C@H](CO)[C@@H](O)[C@H](O)[C@H]2O)c(-c2ccc(O)cc2)oc2cc(O)cc(O)c12` [kaempferol 3-glucoside], in assay [1], the “Inhibition (%) of α-amylase” value is reported as 30.3 ± 2.2%. Moreover, the “Inhibition (%) of α-glucosidase” value in assay [2] is 13.2 ± 0.7%. On to `COc1cc(-c2[o+]c3cc(O)cc(O)c3cc2O[C@@H]2O[C@H](CO)[C@@H](O)[C@H](O)[C@H]2O)cc(OC)c1O` [malvidin glucoside, Malvidin 3-glucoside], for which the “Inhibition (%) of α-amylase” value in assay [1] was found to be 9.1 ± 5.6%. Still for that read-out and setting: then `COc1cc(-c2[o+]c3cc(O)cc(O)c3cc2O[C@@H]2O[C@H](CO)[C@@H](O)[C@H](O)[C@H]2O)ccc1O` [peonidin glucoside, Peonidin 3-glucoside], with 11.3 ± 0.5%.

As to `COc1cc(-c2[o+]c3cc(O)cc(O)c3cc2O[C@@H]2O[C@H](CO)[C@@H](O)[C@H](O)[C@H]2O)cc(O)c1O` [petunidin glucoside, Petunidin 3-glucoside], the “Inhibition (%) of α-amylase” value in assay [1] is listed as 7.7 ± 2.5%. Take `O=c1c(O[C@@H]2O[C@H](CO)[C@H](O)[C@H](O)[C@H]2O)c(-c2ccc(O)c(O)c2)oc2cc(O)cc(O)c12` [quercetin 3-galactoside]: the “Inhibition (%) of α-amylase” value in assay [1] worked out at 28.0 ± 1.0%. Moreover, the “Inhibition (%) of α-glucosidase” value in assay [2] is reported as 8.3 ± 1.2%.
